Assay results taken from patent US9057727B2, “Screening methods using G-protein coupled receptors and related compositions” (The General Hospital Corporation, priority 2007, dated 2015).
Blank lines part the entries; values can stand above or below the molecule they belong to. Square brackets hold non-standard residues; d marks the D form. Peptide text beside a SMILES is read from it. hArg = N=C(N)NCCCC[C@H](N)C(=O)O; Nle = CCCC[C@H](N)C(=O)O; Aib = CC(C)(N)C(=O)O

What was measured:
[1] = molecular target: T1, human PTHR, G protein-coupled conformation (RG) (Homo sapiens, UniProt Q03431); assay: Competition binding to RG conformation of hPTHR (COS-7 membranes, GαsND, 125I-[Aib1,3,M]PTH(1-15) tracer); conditions: Table 5; read-out: IC50 RG, ^125I-PTH(1-15) + GsND
T1 construct: expressed in transfected cells; host or cells: COS-7, transient (Fugene-6); membranes
T1 sequence (Q03431 27-593): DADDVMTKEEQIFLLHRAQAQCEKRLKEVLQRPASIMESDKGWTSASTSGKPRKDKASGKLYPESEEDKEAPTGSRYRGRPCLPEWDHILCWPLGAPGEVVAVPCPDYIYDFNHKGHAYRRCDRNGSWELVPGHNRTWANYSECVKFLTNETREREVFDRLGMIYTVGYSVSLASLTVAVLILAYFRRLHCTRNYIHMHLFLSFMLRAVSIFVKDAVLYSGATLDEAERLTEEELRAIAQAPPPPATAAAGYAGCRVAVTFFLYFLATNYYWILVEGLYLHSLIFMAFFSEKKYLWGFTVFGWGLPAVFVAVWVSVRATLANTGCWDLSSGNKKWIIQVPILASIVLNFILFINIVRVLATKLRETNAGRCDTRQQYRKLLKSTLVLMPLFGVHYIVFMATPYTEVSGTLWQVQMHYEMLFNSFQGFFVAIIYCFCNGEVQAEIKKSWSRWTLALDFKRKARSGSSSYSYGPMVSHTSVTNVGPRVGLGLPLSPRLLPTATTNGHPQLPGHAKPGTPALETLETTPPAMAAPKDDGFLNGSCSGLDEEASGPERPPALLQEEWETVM

[2] = molecular target: T2, human PTHR, G protein-uncoupled conformation (R^0) (Homo sapiens, UniProt Q03431); assay: Competition binding to R0 conformation of hPTHR (COS-7 membranes, GTPγS, 125I-PTH(1-34) tracer)
T2 construct: expressed in transfected cells; host or cells: COS-7, transient (Fugene-6)
T2 sequence (Q03431 27-593): T1 sequence (Q03431 27-593)
Outline: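 Membranes from hPTHR-transfected COS-7 cells (20-100 μg/mL protein) incubated 90 min with radioligand (~150,000 cpm/ml) and unlabeled ligands, then filtered. Specific binding expressed as % of binding without competitor.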

[3] = test system: PTHR-CFPIC3/YFPCT (PTHR-cam); assay: FRET analysis of ligand binding/receptor activation in HEK-293 cells; type: cell-based, human
[4] = molecular target: T3, hPTHR (Homo sapiens, UniProt Q03431); assay: Delayed cAMP response after ligand wash-out in HKRK-B64 cells; type: cell-based; design: expressed in transfected cells; conditions: HKRK-B64, at two hours (so in the source); read-out: cAMP response after wash-out, % of maximum response
T3 sequence (Q03431 27-593): T1 sequence (Q03431 27-593)

[5] = Plasma cAMP in mice after subcutaneous injection; type: in vivo
Description: FIGS. 9A-9D are graphs showing in vivo plasma cAMP levels in mice treated with PTH analogs. Wild-type mice were injected subcutaneously with vehicle (0.9% NaCl/0.05% Tween-20), or vehicle containing a PTH peptide at a dose-level of 10 to 1,000 nmol of peptide per kg of body weight, and at indicated times after injection, blood was withdrawn from the tail vein, and the amount of cAMP in the resulting plasma was quantified by radioimmuno assay. Each curve corresponds to a peptide at a defined concentration, as indicated in the graph keys. The plasma cAMP concentrations are plotted as picomole per μl plasma.
(§1) Wild-type mice were injected subcutaneously with vehicle (0.9% NaCl/0.05% Tween-20), or vehicle containing a PTH peptide so as to achieve a concentration ranging from 10 to 1000 nmol/kg of body weight. At the indicated times after injection, blood was withdrawn from the tail vein, and the amount of cAMP in the resulting plasma was quantified by radioimmuno assay (FIGS. 9A-9D).
as §1, with “at” for “so as to achieve”, “dose level of” for “concentration ranging from”, “At” for “At the”, “assay. Ionized calcium in serum was measured as above and phosphate was measured by a U.V. spectroscopic kit assay.” for “assay (FIGS. 9A-9D).”

[6] = molecular target: T4, ROS 17/2.8 cells (endogenous rat PTHR) (Rattus norvegicus, UniProt P25961); assay: Acute cAMP response in ROS 17/2.8 rat osteoblastic cells; type: cell-based; conditions: 10^−7 M, hPTH(1-28) 10^−6 M, basal 3.7±0.4
T4 construct: the rat osteoblastic cell line ROS17/2.8, which endogenously expresses the rat PTHR; endogenous in cells; host or cells: ROS 17/2.8 rat osteosarcoma cells (membranes or intact cells)
T4 sequence (P25961 27-591): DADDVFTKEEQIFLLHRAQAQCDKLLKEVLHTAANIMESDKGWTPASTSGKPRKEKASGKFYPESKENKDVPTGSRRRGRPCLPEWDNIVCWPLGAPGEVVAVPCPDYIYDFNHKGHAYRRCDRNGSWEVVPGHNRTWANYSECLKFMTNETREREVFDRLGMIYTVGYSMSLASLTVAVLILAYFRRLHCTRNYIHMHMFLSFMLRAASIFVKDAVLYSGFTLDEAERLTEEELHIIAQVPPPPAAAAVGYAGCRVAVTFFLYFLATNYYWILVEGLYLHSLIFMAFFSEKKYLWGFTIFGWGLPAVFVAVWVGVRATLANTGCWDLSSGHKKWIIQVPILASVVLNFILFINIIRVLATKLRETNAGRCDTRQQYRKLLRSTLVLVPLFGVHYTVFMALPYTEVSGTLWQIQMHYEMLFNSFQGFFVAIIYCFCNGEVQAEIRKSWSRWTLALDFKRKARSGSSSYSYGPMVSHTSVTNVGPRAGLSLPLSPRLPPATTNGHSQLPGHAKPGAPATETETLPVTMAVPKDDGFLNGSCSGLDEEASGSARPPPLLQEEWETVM

[7] = molecular target: T4, ROS 17/2.8 cells (endogenous rat PTHR); assay: Delayed cAMP response in ROS 17/2.8 cells; type: cell-based
Description: The analogs used were [E^19],Mc-hPTH(1-34)OH (SEQ ID NO:21) and [A^23,E^19],Mc-hPTH(1-34)OH (SEQ ID NO:28) (Mc=Ala^1,3,12,Gln^10,Arg^11,Trp^14, Arg^19).
The data in FIG. 21B are expressed as a percent of the maximum response observed for each ligand, determined by incubating the cells with ligand in the presence of IBMX for 10 minutes (no ligand wash-out). These values were 67±6; 68±3; and 71±1 pmole/well, respectively. The basal (vehicle) cAMP value was 3.7±0.4 pmole/well.
Following treatment of cells with a ligand, the intracellular cAMP levels were measured by radioimmuno assay, as described (Shimizu et al., J. Biol. Chem. 276:49003-49012 (2001)). The capacities of ligands to produce a delayed cAMP response in cells after a brief exposure to the ligand was assessed as follows. […]

[8] = Calcemic action in normal rats (blood ionized calcium); type: in vivo; conditions: normal rats, i.v.
Outline: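 Female SD-IGS rats, 8 weeks old, dosed intravenously at 1 ml/kg with peptides in PC-buffer (pH 5.0), 6 per group. Tail-vein blood ionized calcium corrected to pH 7.4 at baseline and 1, 2, 4, 6 h. Time course versus vehicle as mean ± SE.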

IC50 [1]: 0.74 ± 0.18 nM
R0:RG ([2]; Table 5, fold weaker affinity for R0 than RG): 1,397
Emax [4]: 23%
Molecule: CCCC[C@H](NC(=O)[C@H](CC(C)C)NC(=O)[C@H](CCC(N)=O)NC(=O)[C@@H](NC(=O)[C@H](CCC(=O)O)NC(=O)C(C)(C)NC(=O)[C@@H](NC(=O)C(C)(C)N)C(C)C)[C@@H](C)CC)C(=O)N[C@@H](Cc1c[nH]cn1)C(=O)N[C@@H](CCC(N)=O)C(=O)N[C@@H](CCCCNC(=N)N)C(=O)N[C@@H](C)C(=O)N[C@@H](CCCCN)C(=O)N[C@@H](Cc1c[nH]c2ccccc12)C(=O)N[C@@H](Cc1ccc(O)cc1)C(N)=O [[Aib^1,3,M]rPTH(1-15)NH2, [Aib^1,3,Nle^8,Gln^10,homoarginine^11,Ala^12,Trp^14,Tyr^15]rPTH(1-15)NH2, reference compound] (H-[Aib]V[Aib]EIQL[Nle]HQ[hArg]AKWY-NH2; N-terminus assumed)
FRET signal after exchange to ligand-free buffer, in words [3]: began to decay immediately upon exchange of the buffer to a ligand-free one

maximum cAMP response (ligand with IBMX 10 minutes, no wash-out) [6]: 68±3 pmole/well
Molecule: CC[C@H](C)[C@H](NC(=O)[C@H](CCC(=O)O)NC(=O)[C@H](CO)NC(=O)[C@@H](NC(=O)[C@@H](N)CO)C(C)C)C(=O)N[C@@H](CCC(N)=O)C(=O)N[C@@H](CC(C)C)C(=O)N[C@@H](CCSC)C(=O)N[C@@H](Cc1c[nH]cn1)C(=O)N[C@@H](CC(N)=O)C(=O)N[C@@H](CC(C)C)C(=O)NCC(=O)N[C@@H](CCCCN)C(=O)N[C@@H](Cc1c[nH]cn1)C(=O)N[C@@H](CC(C)C)C(=O)N[C@@H](CC(N)=O)C(=O)N[C@@H](CO)C(=O)N[C@@H](CCSC)C(=O)N[C@@H](CCC(=O)O)C(=O)N[C@@H](CCCNC(=N)N)C(=O)N[C@H](C(=O)N[C@@H](CCC(=O)O)C(=O)N[C@@H](Cc1c[nH]c2ccccc12)C(=O)N[C@@H](CC(C)C)C(=O)N[C@@H](CCCNC(=N)N)C(=O)N[C@@H](CCCCN)C(=O)N[C@@H](CCCCN)C(=O)N[C@@H](CC(C)C)C(N)=O)C(C)C [hPTH(1-28)NH2] (H-SVSEIQLMHNLGKHLNSMERVEWLRKKL-NH2; N-terminus assumed)
dose producing comparable increase in plasma cAMP [5]: 1,000 nmol/kg

maximum cAMP response (ligand with IBMX 10 minutes, no wash-out) [6]: 67±6 pmole/well
Molecule: CC[C@H](C)[C@H](NC(=O)[C@H](CCC(=O)O)NC(=O)[C@H](CO)NC(=O)[C@@H](NC(=O)[C@@H](N)CO)C(C)C)C(=O)N[C@@H](CCC(N)=O)C(=O)N[C@@H](CC(C)C)C(=O)N[C@@H](CCSC)C(=O)N[C@@H](Cc1c[nH]cn1)C(=O)N[C@@H](CC(N)=O)C(=O)N[C@@H](CC(C)C)C(=O)NCC(=O)N[C@@H](CCCCN)C(=O)N[C@@H](Cc1c[nH]cn1)C(=O)N[C@@H](CC(C)C)C(=O)N[C@@H](CC(N)=O)C(=O)N[C@@H](CO)C(=O)N[C@@H](CCSC)C(=O)N[C@@H](CCC(=O)O)C(=O)N[C@@H](CCCNC(=N)N)C(=O)N[C@H](C(=O)N[C@@H](CCC(=O)O)C(=O)N[C@@H](Cc1c[nH]c2ccccc12)C(=O)N[C@@H](CC(C)C)C(=O)N[C@@H](CCCNC(=N)N)C(=O)N[C@@H](CCCCN)C(=O)N[C@@H](CCCCN)C(=O)N[C@@H](CC(C)C)C(=O)N[C@@H](CCC(N)=O)C(=O)N[C@@H](CC(=O)O)C(=O)N[C@H](C(=O)N[C@@H](Cc1c[nH]cn1)C(=O)N[C@@H](CC(N)=O)C(=O)N[C@@H](Cc1ccccc1)C(N)=O)C(C)C)C(C)C [hPTH(1-34)NH2]
dose producing comparable increase in plasma cAMP [5]: 50 nmol/kg

fold reduction of binding affinity for R^0 by Trp^23→Ala substitution ([2]; versus [E^19,Mc]PTH(1-34)): 10 fold
Molecule: AVAEIQLMHQRAKWLNSMERVEALRKKLQDVHNF [[A^23,E^19],Mc-hPTH(1-34)OH]
duration of cAMP signaling, in words [7]: reduced duration of cAMP signaling in cells
calcemic action (blood ionized calcium), in words [8]: reduced the hypercalcemic effect
